Test results reported in patent US20060281711A1, “IL-12 modulatory compounds” (Synta Pharmaceuticals Corp., priority 2005, published 2006).

Legend:
IL-12 = assay: Human in vitro assay: inhibition of IL-12 production in stimulated human PBMC or THP-1 cells (ELISA); assay type: cell-based; conditions: read-out: IC50 Range (in vitro IC50 for IL-12)
Source text: The biological activities of a compound of the invention can be evaluated by a number of cell-based assays. One of such assays can be conducted using cells from human peripheral blood mononuclear cells (PBMC) or human monocytic cell line (THP-1). The cells are stimulated with a combination of human interferon-γ (IFNγ) and lipopolysaccharide or a combination of IFNγ and Staphylococcus aureus Cowan I in the presence of a test compound. The level of inhibition of IL-12 production can be measured by determining the amount of p70 by using a sandwich ELISA assay with anti-human IL-12 antibodies. IC50 of the test compound can then be determined. Specifically, PBMC or THP-1 cells are incubated with the test compound. Cell viability was assessed using the bioreduction of MTS [3-(4,5-dimethylthiazol-2-yl)-5-(3-carboxymethoxyphenyl)-2-(4-sulfophenyl)-2H-tetrazolium] (Promega, Madison, Wis.).
8. Reagents. Staphylococcus aureus Cowan I (SAC) was obtained from Calbiochem (La Jolla, Calif.), and lipopolysaccharide (LPS, Serratia marscencens) was obtained from Sigma (St. Louis, Mo.). Human and mouse recombinant IFNγ were purchased from Boehringer Mannheim (Mannheim, Germany) and Pharmingen (San Diego, Calif.), respectively.
9. Human In Vitro Assay. Human PBMC were isolated by centrifugation using Ficoll-Paque (Pharmacia Biotech, Uppsala, Sweden) and prepared in RPMI medium supplemented with 10% fetal calf serum (FCS), 100 U/mL penicillin, and 100 μg/mL streptomycin. PBMC were plated in wells of a 96-well plate at a concentration of 5×10^5 cells/well, and primed by adding IFNγ (30 U/mL) for 22 h and stimulated by adding LPS (1 μg/mL), or by adding IFNγ (100 U/mL) and then stimulated by adding SAC (0.01%). A test pyrimidine compound was dissolved in DMSO, and added to wells of the 96-well plate. The final DMSO concentration was adjusted to 0.25% in all cultures, including the compound-free control. Human THP-1 cells were plated in wells, primed by adding IFNγ (100 U/mL) for 22 h and stimulated by adding SAC (0.025%) in the presence of different concentrations of the pyrimidine compound. Cell-free supernatants were taken 18 h later for measurement of cytokines. Cell viability was assessed using the bioreduction of MTS. Cell survival was estimated by determining the ratio of the absorbance in compound-treated groups versus compound-free control.
10. The supernatant was assayed for the amount of […], IL-12p70, or IL-10 by using a sandwich ELISA with anti-human antibodies, i.e., a Human IL-12 p40 ELISA kit from R&D Systems (Berkeley, Calif.), and a Human IL-12 p70 or IL-10 ELISA kit from Endogen (Cambridge, Mass.). Assays were based on the manufacturer's instructions.
The biological activities of compounds of the invention were tested on human PBMC or THP-1 cells.

[1] = tested on: Adjuvant arthritis (AA) in female Lewis rats; assay: Treatment of adjuvant arthritis in rats; assay type: in vivo, rat; conditions: 20 mg/kg dose, orally once a day for 7 days (day 7-14)
Experimental: Adjuvant arthritis (AA) was induced in female Lewis rats by the intracutaneous injection (base of the tail) of 0.1 mL of a 10 mg/mL bacterial suspension made from ground, heat-killed Mycobacterium tuberculosis H37Ra suspended in incomplete Freund's adjuvant. Rats were given a test compound orally once a day for 7 days (day 7-14), starting day 7 after mycobacterium induction. The development of polyarthritis was monitored daily by macroscopic inspection and assignment of an arthritis index to each animal, during the critical period (days 10 to 25 post-immunization).
The intensity of polyarthritis was scored according to the following scheme: (a) Grade each paw from 0 to 3 based on erythema, swelling, and deformity of the joints: 0 for no erythema or swelling; 0.5 if swelling is detectable in at least one joint; 1 for mild swelling and erythema; 2 for swelling and erythema of both tarsus and carpus; and 3 for ankylosis and bony deformity. Maximum score for all 4 paws is thus 12. (b) Grade for other parts of the body: for each ear, 0.5 for redness and another 0.5 if knots are present; 1 for connective tissue swelling (saddle nose); and 1 for the presence of knots or kinks in the tail. The highest possible arthritic index is 16.
Experiments with the AA model were repeated four times. […] The arthritis score used in this model is a reflection of the inflammatory state of the structures monitored and the results therefore show the ability of the test compound to provide relief for this aspect of the pathology.

COc1ccc2c(c1)/C(=N/Nc1cc(N3CCOCC3)nc(OCCN3CCOCC3)n1)CC2 [Compound 9, N-(6-Methoxy-indan-1-ylidene)-N′-[6-morpholin-4-yl-2-(2-morpholin-4-yl-ethoxy)-pyrimidin-4-yl]-hydrazine]
IC50 (IL-12): < 1000 nM | percent reduction in arthritic score [1]: 24%
